PubChem BioAssay AID328 (DTP/NCI, 2004)
Where “and” joins values, the source holds several entries; their conditions need not be identical. Equal values may be shown once. Toxic doses and inconclusive results are not listed. How the source made its calls: active means survival T/C of 150% or more; inactive means T/C below 125% in these data.

Test system: BDF1 mice, P388 leukemia ip, median survival T/C
Assay: NCI In Vivo Anticancer Drug Screen. Data for tumor model P388 Leukemia (intraperitoneal) in B6D2F1 (BDF1) mice
Settings: endpoint: median survival time, higher = longer survival
Summary of the method: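 Transplantable tumour in mice; compound vs vehicle dosing; survival scored; ratio of treated to control reported.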

[1] = dose: 100.0 mg/kg/injection, schedule: Q04DX003 (ip), vehicle: saline with Tween-80
[2] = dose: 200.0 mg/kg/injection, schedule: Q04DX003 (ip), vehicle: saline with Tween-80
[3] = dose: 50.0 mg/kg/injection, schedule: Q01DX009 (ip), vehicle: saline with Tween-80
[4] = dose: 12.5 mg/kg/injection, schedule: Q01DX009 (ip), vehicle: saline
[5] = dose: 25.0 mg/kg/injection, schedule: Q01DX009 (ip), vehicle: saline
[6] = dose: 50.0 mg/kg/injection, schedule: Q01DX009 (ip), vehicle: saline
[7] = dose: 100.0 mg/kg/injection, schedule: Q01DX009 (ip), vehicle: saline with Tween-80
[8] = dose: 25.0 mg/kg/injection, schedule: Q01DX009 (ip), vehicle: saline with Tween-80
[9] = dose: 200.0 mg/kg/injection, schedule: Q01DX009 (ip), vehicle: saline with Tween-80

Measured: T/C

O=C1N(Cl)C(=O)C(c2ccc(C(F)(F)F)cc2)(c2ccc(C(F)(F)F)cc2)N1Cl
inactive: dose: 1.56 mg/kg/injection, schedule: Q01DX009 (ip), vehicle: saline with Tween-80 104 % of control | dose: 3.12 mg/kg/injection, schedule: Q01DX009 (ip), vehicle: saline with Tween-80 100 % of control | dose: 6.25 mg/kg/injection, schedule: Q01DX009 (ip), vehicle: saline with Tween-80 100 % of control | dose: 12.5 mg/kg/injection, schedule: Q01DX009 (ip), vehicle: saline with Tween-80 109 % of control | [1] 100 % of control | [2] 109 % of control

COC(=O)c1ccccc1NC(=O)C(Cl)Cl
inactive: dose: 75.0 mg/kg/injection, schedule: Q04DX003 (ip), vehicle: olive oil, sesame oil, peanut oil 95 % of control | dose: 100.0 mg/kg/injection, schedule: Q01DX001 (ip), vehicle: olive oil, sesame oil, peanut oil 95 % of control | dose: 150.0 mg/kg/injection, schedule: Q04DX003 (ip), vehicle: olive oil, sesame oil, peanut oil 95 % of control | dose: 200.0 mg/kg/injection, schedule: Q01DX001 (ip), vehicle: olive oil, sesame oil, peanut oil 90 % of control | dose: 300.0 mg/kg/injection, schedule: Q04DX003 (ip), vehicle: olive oil, sesame oil, peanut oil 100 % of control | dose: 400.0 mg/kg/injection, schedule: Q01DX001 (ip), vehicle: olive oil, sesame oil, peanut oil 100 % of control

Ic1ncnc2c1ncn2C1CCCO1 (stereo not given)
inactive: dose: 44.0 mg/kg/injection, schedule: Q01DX009 (ip), vehicle: saline sonified 100 % of control | dose: 66.0 mg/kg/injection, schedule: Q01DX009 (ip), vehicle: saline sonified 123 % of control | dose: 100.0 mg/kg/injection, schedule: Q01DX009 (ip), vehicle: saline sonified 114 % of control | dose: 100.0 mg/kg/injection, schedule: Q04DX003 (ip), vehicle: saline sonified 115 % of control | dose: 150.0 mg/kg/injection, schedule: Q01DX009 (ip), vehicle: saline sonified 114 % of control | dose: 200.0 mg/kg/injection, schedule: Q01DX009 (ip), vehicle: saline sonified 122 % of control | dose: 200.0 mg/kg/injection, schedule: Q04DX003 (ip), vehicle: saline sonified 120 % of control | dose: 400.0 mg/kg/injection, schedule: Q01DX009 (ip), vehicle: saline sonified 100 % of control | dose: 400.0 mg/kg/injection, schedule: Q04DX003 (ip), vehicle: saline sonified 105 % of control

CNc1c(F)c(C#N)c(F)c(F)c1C#N
inactive: [3] 119 % of control

CC(C)=CC(=O)OC1C2C(C)C(=O)OC2C(O)C(C)C2C=CC(=O)C21C (stereo not given)
inactive: dose: 3.12 mg/kg/injection, schedule: Q01DX009 (ip), vehicle: saline 94 % of control | dose: 6.25 mg/kg/injection, schedule: Q01DX009 (ip), vehicle: saline 101 % of control | [4] 103 % of control | [5] 120 % of control | dose: 50.0 mg/kg/injection, schedule: Q01DX009 (ip), vehicle: Klucel (hydroxypropylcellulose) (HPC) 118 % of control | [6] 120 % of control

O=S1(=O)CCCO1
inactive: [3] 95 % of control | [7] 113 % of control

CC(=O)OC(C)(C)/C=C/C(=O)[C@](C)(O)[C@H]1[C@H](O)C[C@@]2(C)[C@@H]3CC=C4[C@@H](C=C(O)C(=O)C4(C)C)[C@]3(C)C(=O)C[C@]12C
inactive: dose: 1.0 mg/kg/injection, schedule: Q01DX009 (ip), vehicle: saline 100 % of control | dose: 2.0 mg/kg/injection, schedule: Q01DX009 (ip), vehicle: saline 110 % of control

CC(C)[N+](C)(C)CC(O)COc1cccc2ccccc12 (stereo not given)
inactive: [4] 103 % of control and 112 % of control | [5] 88 % of control and 109 % of control | [6] 105 % of control and 123 % of control

O=C(c1ccccc1)c1cc[n+]([O-])cc1
inactive: dose: 75.0 mg/kg/injection, schedule: Q01DX001 (ip), vehicle: saline sonified 91 % of control | dose: 150.0 mg/kg/injection, schedule: Q01DX001 (ip), vehicle: saline sonified 91 % of control

Clc1nc2nc[nH]c2nc1Cl
active: [8] 170 % of control
inactive: dose: 12.5 mg/kg/injection, schedule: Q04DX003 (ip), vehicle: saline with Tween-80 100 % of control | dose: 25.0 mg/kg/injection, schedule: Q04DX003 (ip), vehicle: saline with Tween-80 100 % of control | [3] 95 % of control | dose: 50.0 mg/kg/injection, schedule: Q04DX003 (ip), vehicle: saline with Tween-80 90 % of control | [1] 95 % of control

CCOC(=O)c1c[nH]c2c(OC)cccc2c1=O
inactive: [8] 93 % of control | [3] 109 % of control | [7] 109 % of control | [1] 99 % of control | [9] 109 % of control | [2] 98 % of control | dose: 300.0 mg/kg/injection, schedule: Q01DX009 (ip), vehicle: saline with Tween-80 90 % of control

CC(C)CCCC(C)C1CCC2C3CCC45CC4C(=O)CCC5(C)C3CCC12C (stereo not given)
inactive: dose: 100.0 mg/kg/injection, schedule: Q04DX003 (ip), vehicle: alcohol 115 % of control | dose: 200.0 mg/kg/injection, schedule: Q04DX003 (ip), vehicle: alcohol 100 % of control | dose: 400.0 mg/kg/injection, schedule: Q04DX003 (ip), vehicle: alcohol 100 % of control

OCc1ccccc1Sc1ccccc1CO
inactive: [3] 91 % of control | [7] 100 % of control | [9] 99 % of control

Nc1nc(SCc2ccccn2)c2[nH]cnc2n1
inactive: dose: 20.0 mg/kg/injection, schedule: Q04DX003 (ip), vehicle: Klucel (hydroxypropylcellulose) (HPC) 104 % of control | dose: 30.0 mg/kg/injection, schedule: Q04DX003 (ip), vehicle: Klucel (hydroxypropylcellulose) (HPC) 104 % of control | dose: 44.0 mg/kg/injection, schedule: Q04DX003 (ip), vehicle: Klucel (hydroxypropylcellulose) (HPC) 104 % of control | dose: 100.0 mg/kg/injection, schedule: Q01DX009 (ip), vehicle: Klucel (hydroxypropylcellulose) (HPC) 107 % of control | dose: 200.0 mg/kg/injection, schedule: Q01DX009 (ip), vehicle: Klucel (hydroxypropylcellulose) (HPC) 92 % of control

C1=NOC2c3ccc4ccccc4c3CCC12 (stereo not given)
inactive: dose: 200.0 mg/kg/injection, schedule: Q04DX003 (ip), vehicle: Klucel (hydroxypropylcellulose) (HPC) 87 % of control | dose: 400.0 mg/kg/injection, schedule: Q04DX003 (ip), vehicle: Klucel (hydroxypropylcellulose) (HPC) 95 % of control

CC(=O)c1c(C)cc(C(C)(C)C)cc1C
inactive: dose: 100.0 mg/kg/injection, schedule: Q01DX009 (ip), vehicle: saline 109 % of control | dose: 200.0 mg/kg/injection, schedule: Q01DX009 (ip), vehicle: saline 100 % of control | dose: 400.0 mg/kg/injection, schedule: Q01DX009 (ip), vehicle: saline 109 % of control

C/C=C1\CN(C(=O)C(NC(=O)C(N)C(O)C(O)COC(N)=O)C2OC(n3cc(C(=O)O)c(=O)[nH]c3=O)C(O)C2O)C1C(=O)O (stereo not given) (tested in a mixture with another compound)
inactive: dose: 100.0 mg/kg/injection, schedule: Q01DX008 (ip), vehicle: saline 90 % of control | dose: 200.0 mg/kg/injection, schedule: Q01DX008 (ip), vehicle: saline 100 % of control

Cc1[nH]c2cc(Br)ccc2c1/C=N/NC(N)=S
inactive: dose: 25.0 mg/kg/injection, schedule: Q01DX001 (ip), vehicle: Klucel (hydroxypropylcellulose) (HPC) 107 % of control | dose: 50.0 mg/kg/injection, schedule: Q01DX001 (ip), vehicle: Klucel (hydroxypropylcellulose) (HPC) 102 % of control | dose: 100.0 mg/kg/injection, schedule: Q01DX001 (ip), vehicle: Klucel (hydroxypropylcellulose) (HPC) 103 % of control

CC(C)[C@]12O[C@H]1[C@@H]1O[C@]13[C@]1(O[C@H]1C[C@H]1C4=C(C(=O)OC4)[C@@H](O)C[C@@]13C)[C@@H]2O
active: dose: 0.25 mg/kg/injection, schedule: Q01DX009 (ip), vehicle: saline + alcohol 150 % of control
inactive: dose: 0.03 mg/kg/injection, schedule: Q01DX009 (ip), vehicle: saline + alcohol 100 % of control and 106 % of control | dose: 0.06 mg/kg/injection, schedule: Q01DX009 (ip), vehicle: saline + alcohol 113 % of control and 117 % of control | dose: 0.13 mg/kg/injection, schedule: Q01DX009 (ip), vehicle: saline + alcohol 120 % of control | dose: 3.8 micrograms/kg/injection, schedule: Q01DX009 (ip), vehicle: saline 104 % of control | dose: 6.5 micrograms/kg/injection, schedule: Q01DX009 (ip), vehicle: saline 104 % of control | dose: 13.0 micrograms/kg/injection, schedule: Q01DX009 (ip), vehicle: saline 95 % of control | dose: 25.0 micrograms/kg/injection, schedule: Q01DX009 (ip), vehicle: saline 109 % of control | dose: 100.0 micrograms/kg/injection, schedule: Q01DX009 (ip), vehicle: saline + alcohol 90 % of control
